# Values of other authors in article PMC4148150 (Journal of Medicinal Chemistry, 2014).
# Conditions: mice, oral dosing
smiles,measurement,value
"CC(=O)N1CCC(NC(=O)NC23CC4CC(CC(C4)C2)C3)CC1 [APAU, 1-(1-acetypiperidin-4-yl)-3-adamantanylurea]",PK-AUC,0.183 µM·h
"CS(=O)(=O)N1CCC(NC(=O)Nc2ccc(OC(F)(F)F)cc2)CC1 [TUPS, 1-(1-methylsulfonyl-piperidin-4-yl)-3-(4-trifluoromethoxyphenyl)-urea]",PK-AUC,5.3 µM·h
